Measured values from US20120190691A1, “PHARMACEUTICAL COMPOSITIONS FOR TREATMENT OF RESPIRATORY AND INFLAMMATORY DISEASES” (priority 2010, published 2012).

Test system: ovalbumin-induced bronchospasm
Experiment: Ovalbumin-induced bronchospasm (modified Konzett-Rössler) in sensitized anaesthetized guinea pigs
Format: in vivo
Protocol: Male and female Dunkin-Harley guinea pigs were obtained from the Experimental Animal Breeding Centre of Harlan Winkelmann (Germany). After fasting overnight, but with free access to drinking water, animals with body weight of 400-500 g were used.
Bronchospasm was recorded with a modified version of the method of Konzett-Röβler (described by Walland et al, in “Compensation of muscarinic bronchial effects of talsaclidine by concomitant sympathetic activation in guinea pigs”, European Journal of Pharmacology, Volume 330, Issue 2-3, 9 Jul. 1997, Pages 213-219). The animals were ventilated by means of a piston pump (starling ventilator, Hugo Sachs Elektronik, Germany) at a stroke volume of 1 ml/100 g body weight and at a rate of 60 strokes per min. The tubing which connected the tracheal cannula with the ventilator was provided with a branch leading to the bronchospasm transducer (bronchospasm transducer 7020, Ugo Basile, Italy). The air flow measurement is based on the hot wire anemometer principle. Any air flow will reduce the temperature of the wire, thereby decreasing its resistance in proportion of the flow. As the wire element is one arm of a Weaststone bridge, variation in resistance generate a proportional voltage output which feeds the amplifier/recording system (Notocord-hem, Notocord, France). Blood pressure and heart rate are monitored from a carotid artery in order to check the anesthesia and the variability of the preparation.
Guinea pigs were sensitized on 2 consecutive days with 20 μg ovalbumin (OVA) (Sigma, St. Louis, Mo.) and 20 mg Al(OH)3 in 0.5 ml saline, which were administered subcutaneously. Experiments, which included OVA challenge, were conducted 2 weeks after sensitization. Approximately 1 hour before OVA challenge, the animals were anaesthetized with an intraperitoneal injection of 50 mg/kg pentobarbital. Anesthesia was prolonged by intravenous infusion of pentobarbital (15 mg/kg/h) via the jugular vein. A tracheal cannula was introduced after tracheotomy for artificial ventilation. The internal jugular vein was cannulated for drug injection while the left carotid artery was cannulated for measuring blood pressure and heart rate. 30 minutes after the beginning of air flow and blood pressure measurements, bronchoconstriction is triggered by an OVA challenge given at a fixed dose of 50 μg/kg inhaled.
The test compounds or combinations of compounds were administered orally 2 hours before the OVA challenge.
The control group comprises 12 guinea-pigs, test compounds comprise 2 to 4 guinea-pigs.
Bronchoprotection of the drug (i.e. inhibition of OVA broncho-constriction) is expressed as a percentage of inhibition of the increase in overflow induced by OVA in the control animals.

[1] = Desloratidine 2.0 mg/kg p.o. alone (CRTH2 antagonist (1) 0.0)
[2] = Fexofenadine 0.5 mg/kg p.o. alone (CRTH2 antagonist (1) 0.0)
[3] = Pyrilamine 2.0 mg/kg p.o. alone (CRTH2 antagonist (1) 0.0)

CN(C)c1nc(Cc2ccc(NC(=O)c3ccc(C(F)(F)F)cc3)cc2)nc(N(C)C)c1CC(=O)O [CRTH2 antagonist (1), [4,6-bis(dimethylamino)-2-(4-(4-(trifluoromethyl)benzamido)benzyl)pyrimidin-5-yl]-acetic acid] showed an overflow (CRTH2 antagonist (1) 0.01 mg/kg p.o. alone, 2 hours before OVA challenge) of 63 mL, an overflow (CRTH2 antagonist (1) 0.03 mg/kg p.o. alone, 2 hours before OVA challenge) of 65 mL and an overflow (CRTH2 antagonist (1) 0.10 mg/kg p.o. alone, 2 hours before OVA challenge) of 69 mL. The overflow (CRTH2 antagonist (1) 0.30 mg/kg p.o. alone, 2 hours before OVA challenge) was 60 mL, the overflow (CRTH2 antagonist (1) 1.00 mg/kg p.o. alone, 2 hours before OVA challenge) was 65 mL and the overflow (CRTH2 antagonist (1) 3.00 mg/kg p.o. alone, 2 hours before OVA challenge) was 61 mL. For the same compound, the overflow (CRTH2 antagonist (1) 10.00 mg/kg p.o. alone, 2 hours before OVA challenge) was 65 mL, the “effect in this assay by itself” value (alone, conclusion) was “no effect” and the “effect by itself on the ovalbumin-induced bronchospasm” value (up to 10 mg/kg p.o., alone) was “no effect”.

Clc1ccc2c(c1)CCc1cccnc1C2=C1CCNCC1 [Desloratidine, reference compound] gave a bronchoprotection [1] of 43% and an overflow [1] of 34 mL.

CC(C)(C(=O)O)c1ccc(C(O)CCCN2CCC(C(O)(c3ccccc3)c3ccccc3)CC2)cc1 (stereo not drawn) [Fexofenadine, reference compound] showed a bronchoprotection [2] of 35% and an overflow [2] of 39 mL.

COc1ccc(CN(CCN(C)C)c2ccccn2)cc1 [Pyrilamine, reference compound] gave a bronchoprotection [3] of 45% and an overflow [3] of 33 mL.
